US20030027210A1, “Alpha synuclein aggregation assays” (priority 2001, published 2003)
Like-named read-outs stand apart in the source and are kept apart here.

Key:
[1] = target: alpha synuclein peptide 61-90 (SEQ.ID.No.:3) (Homo sapiens, UniProt P37840); assay: Thioflavin T fluorescence disaggregation assay of aggregated alpha synuclein; assay type: biochemical
Experimental: Prior to assay, concentrated alpha synuclein peptide 61-90 (SEQ.ID.No.:3) was diluted into assay buffer containing Thioflavin T (20 uM) such that a signal to noise of approximately 5 to 1 was achieved. Rifampicin was maintained in 8% DMSO at a concentration of 2 mM. To break up super aggregates, the solution was sonicated using a Heat System sonicator with a microprobe. The samples were sonicated in 30 ml volume in a Coming 50 ml centrifuge tube for 25, 3 second bursts. The assay was run in LJL HE (LJL Biosystems) plates as follows: 18 μl of alpha synuclein/thioflavin T mixture was added to the well followed by 2 μl of a 30% DMSO or by rifampicin diluted in 30% DMSO. As a control, buffer with thioflavin T was added to separate wells in the absence of alpha synuclein. The samples were incubated at room temperature for the times indicated in FIG. 1 and were then read on the LJL reader using wavelengths of 440 nm and 485 nm.
To test the effect of incubation times on disaggregation of alpha synuclein, alpha synuclein was incubated with a rifampicin concentration curve ranging from 0.1 μM to 100 μM for 2 and 5 hours. The data are the mean of 11 samples±the standard deviation at each time point.
The signal to background are from quadruplicate samples of buffer (low value) and alpha synuclein/TFT buffer (high value). The EC50 were generated from 11 samples of each time point.
To narrow down the incubation times as well as to identify the concentrations of rifampicin to use, the above study was repeated using incubation times ranging from 5 minutes to 2 hours and rifampicin concentrations of 1.56 μM to 15 μM.

alpha synuclein protein = target: T1, alpha synuclein protein (Homo sapiens, UniProt P37840); assay: Thioflavin T alpha-synuclein aggregation assay with or without seeding; assay type: biochemical; conditions: peptide used for seeding; Thioflavin T fluorescence
T1 construct: made in house; host or cells: E. coli ER2566
Experimental: A fluorescence-based TFT high-throughput screening assay was developed for the a-synuclein aggregation. Thioflavin T absorbs at 450 nm and emits at 485 nm; fluorescence increases 40-fold in the presence of beta-sheet conformation (LeVine and Scholten). Thioflavin T was obtained from Fluka Chemika. Twenty four micrograms (24 μg) of alpha synuclein protein in assay buffer (0.2 M potassium chloride pH=6; 0.075% sodium azide) was added to microvolume multiwell plate holding 10 μL. Then, Thioflavin T (TFT) was added to each well to a final concentration of 20 μM and contents were thoroughly mixed. Alpha-synuclein was allowed to fully aggregated prior to conducting a dissaggregation assay. Degree of aggregation was measured by increase in Thioflavin T fluorescence. Alpha-synuclein aggregation was conducted with or without seeding (using a peptide to enhance the rate of aggregation).
Alpha synuclein aggregates through the formation of a beta sheet structure, measured by increased fluorescence of Thioflavin T at 485 nm.

| EC50 ([1]; incubation time 15 minutes, rifampicin 1.56 μM to 15 μM, read-out: EC50 for Rifampicin to disaggregate alpha synuclein) | EC50 ([1]; incubation time 30 minutes, rifampicin 1.56 μM to 15 μM, read-out: EC50 for Rifampicin to disaggregate alpha synuclein) | EC50 ([1]; incubation time 60 minutes, rifampicin 1.56 μM to 15 μM, read-out: EC50 for Rifampicin to disaggregate alpha synuclein) | EC50 ([1]; incubation time 2 hours, rifampicin 0.1 μM to 100 μM, room temperature, read-out: Rifampicin EC50) | EC50 ([1]; incubation time 120 minutes, rifampicin 1.56 μM to 15 μM, read-out: EC50 for Rifampicin to disaggregate alpha synuclein) | EC50 ([1]; incubation time 5 hours, rifampicin 0.1 μM to 100 μM, room temperature, read-out: Rifampicin EC50) | effect of seeding peptide on rate of synuclein aggregation (alpha synuclein protein) | Compound |
| --- | --- | --- | --- | --- | --- | --- | --- |
| 311 µM | 76 µM | 16.8 µM | 23.9 µM | 10.6 µM | 21 µM | – | CO[C@H]1/C=C/O[C@@]2(C)Oc3c(C)c(O)c4c(O)c(c(/C=N/N5CCN(C)CC5)c(O)c4c3C2=O)NC(=O)/C(C)=C\C=C\[C@H](C)[C@H](O)[C@@H](C)[C@@H](O)[C@@H](C)[C@H](OC(C)=O)[C@@H]1C [Rifampicin] |
| – | – | – | – | – | – | speed up synuclein aggregation | EQVTNVGGAVVTGVT [syn 61-75, synthetic peptide of residues 61 to 75 of human alpha synuclein, enhances rate of aggregation] |
